Data published in article PMC8701318, “LC-QTOF-MS/MS Based Molecular Networking Approach for the Isolation of α-Glucosidase Inhibitors and Virucidal Agents from Coccinia grandis (L.) Voigt” (Foods, 2021).

How the values were obtained:
[1] = molecular target: α-Glucosidase enzyme (Saccharomyces cerevisiae); test: In-vitro α-glucosidase inhibitory assay (p-NPG substrate); settings: read-out: α-Glucosidase Inhibitory Activity, IC50; mean ± s.d. of a triplicate experiment
Procedure: The α-glucosidase assay was performed as described by Liu et al. [21] with slight modification. The reaction mixture consisting of 50 µL of potassium phosphate buffer (PBS, 0.1 M, pH 6.8) and 20 µL of α-glucosidase (0.5 U/mL) was pre-incubated with 20 µL of the test sample at 37 °C for 15 min in a 96-well plate. The mixture was added 20 µL p-NPG (1 mM) and incubated again at 37 °C for 15 min. A total of 50 µL of Na2CO3 (0.2 M) was added to terminate the enzymatic activity. The absorbance value of each well was measured immediately using a microplate reader at 405 nm. […] All glycosides were dissolved in 50% DMSO, while a crude extract was dissolved in 100% DMSO. The experiment was performed in triplicate. The enzyme inhibition rate was calculated as follows:(1) [1−(ODsample−ODsample blank)/(ODcontrol−ODblank)] × 100 where ODsample represents the absorbance of PBS + enzyme + sample + p-NPG; ODsample blank represents the absorbance of PBS + sample; ODcontrol represents the absorbance of PBS + enzyme + solvent + p-NPG; ODblank represents the absorbance of PBS + solvent. The inhibitory activity is expressed as IC50 (half minimal inhibitory concentration) value. Data were normalized, and the IC50 values were calculated using GraphPad Prism 9.2.0.

α-glucosidase = system: α-glucosidase; parameters: method as in PMID 24125526; settings: isolated from leaves of Morus atropurpurea; cited from earlier work
hepatitis C virus = system: hepatitis C virus; parameters: method as in PMID 28638096; settings: cited from earlier work
[2] = Cytotoxicity in MDCK cells by the MTT assay; settings: dog
influenza A virus H1N1 = test: Virucidal activity, ASTM E1053-20 method; format: cell-based; settings: for Virucidal Activity Log Reduction: 10 min exposure
[3] = system: dengue virus serine protease; parameters: method as in PMID 32107969; settings: cited from earlier work
[4] = mice model; cited from earlier work
[5] = parameters: method as in earlier work; settings: isolated from cottonseeds; cited from earlier work
[6] = system: hippocampal neural progenitor cells; parameters: method as in PMID 19326568; settings: possibly via the 5-HT1A receptor; cited from earlier work

| Compound | IC50 [1] | α-glucosidase inhibitory activity (in words) (α-glucosidase) | viability at 3.9 µg/mL [2] | viability at 7.8 µg/mL [2] | viability at 15.6 µg/mL [2] | viability at 31.3 µg/mL [2] | viability at 62.5 µg/mL [2] | viability at 125 µg/mL [2] | Virucidal Activity Log Reduction (influenza A virus H1N1; 3.9 µg/mL) | Virucidal Activity Log Reduction (influenza A virus H1N1; 7.8 µg/mL) | Virucidal Activity Log Reduction (influenza A virus H1N1; 15.6 µg/mL) | Virucidal Activity Log Reduction (influenza A virus H1N1; 31.3 µg/mL) | Virucidal Activity Log Reduction (influenza A virus H1N1; 62.5 µg/mL) | Virucidal Activity Log Reduction (influenza A virus H1N1; 125.0 µg/mL) | viability at 250 µg/mL [2] | viability at 500 µg/mL [2] | Virucidal Activity Log Reduction (influenza A virus H1N1; 250.0 µg/mL) | Virucidal Activity Log Reduction (influenza A virus H1N1; 500.0 µg/mL) | reduction of virus (influenza A virus H1N1; 500.0 and 250.0 µg/mL) | virucidal Log reduction (influenza A virus H1N1; 500.0 and 250.0 µg/mL) | further results |
| --- | --- | --- | --- | --- | --- | --- | --- | --- | --- | --- | --- | --- | --- | --- | --- | --- | --- | --- | --- | --- | --- |
| C[C@@H]1O[C@@H](OC[C@H]2O[C@@H](Oc3c(-c4ccc(O)c(O)c4)oc4cc(O)cc(O)c4c3=O)[C@H](O)[C@@H](O)[C@@H]2O)[C@H](O)[C@H](O)[C@H]1O [Compound 1, rutin] | 243 ± 5.29 µM | α-glucosidase inhibitory activity | 99.3 ± 3.45% | 97.8 ± 0.31% | 94.7 ± 3.93% | 86.5 ± 2.16% | 83.8 ± 2.02% | 77.2 ± 1.28% | 1.20 ± 0.025 Log | 1.32 ± 0.032 Log | 1.34 ± 0.044 Log | 1.34 ± 0.030 Log | 1.52 ± 0.045 Log | 1.80 ± 0.105 Log | – | – | – | – | – | – | hepatitis C virus entry inhibition (in words) (hepatitis C virus): potent hepatitis C virus entry inhibitor |
| C[C@@H]1O[C@@H](OC[C@H]2O[C@@H](Oc3c(-c4ccc(O)cc4)oc4cc(O)cc(O)c4c3=O)[C@H](O)[C@@H](O)[C@@H]2O)[C@H](O)[C@H](O)[C@H]1O [Compound 2, kaempferol 3-O-rutinoside] | 236 ± 27.7 µM | α-glucosidase inhibitory activity | 98.1 ± 1.34% | 96.3 ± 5.13% | 92.3 ± 1.95% | 88.5 ± 2.67% | 86.5 ± 3.82% | 78 ± 1.75% | 1.66 ± 0.071 Log | 1.65 ± 0.084 Log | 1.66 ± 0.071 Log | 1.68 ± 0.046 Log | 1.82 ± 0.091 Log | 1.95 ± 0.124 Log | – | – | – | – | – | – | inhibition of dengue virus serine protease (in words) [3]: strong inhibition |
| C[C@@H]1O[C@@H](OC[C@H]2O[C@@H](Oc3c(-c4ccc(O)cc4)oc4cc(O)cc(O)c4c3=O)[C@H](O)[C@@H](O)[C@H]2O)[C@H](O)[C@H](O)[C@H]1O [Compound 3, kaempferol 3-O-alpha-L-rhamnopyranosyl-(1→6)-beta-D-galactopyranoside] | 195 ± 18.1 µM | – | 95.6 ± 6.25% | 92.8 ± 4.84% | 89.7 ± 0.82% | 88.7 ± 0.21% | 83.6 ± 0.74% | 73.3 ± 0.9% | 1.63 ± 0.069 Log | 1.66 ± 0.071 Log | 1.91 ± 0.062 Log | 1.95 ± 0.124 Log | 1.91 ± 0.062 Log | 1.98 ± 0.088 Log | – | – | – | – | – | – | reduction of virus (influenza A virus H1N1; 31.3 and 15.6 µg/mL): 99%; virucidal Log reduction (influenza A virus H1N1; 31.3 and 15.6 µg/mL): around 1.9 Log |
| C[C@@H]1O[C@@H](OC[C@H]2O[C@@H](Oc3c(-c4ccc(O)c(O)c4)oc4cc(O)cc(O)c4c3=O)[C@H](O[C@@H]3OCC(O)(CO)[C@H]3O)[C@@H](O)[C@@H]2O)[C@H](O)[C@H](O)[C@H]1O (stereo partly drawn) [Compound 5, quercetin 3-O-β-D-apiofuranosyl-(1→2)-[α-L-rhamnopyranosyl-(1→6)]-β-D-glucopyranoside] | 431 ± 17.6 µM | – | – | – | 95.8 ± 4.22% | 94.1 ± 1.85% | 90 ± 3.08% | 85.8 ± 2.87% | – | – | 1.87 ± 0.072 Log | 1.84 ± 0.108 Log | 1.90 ± 0.062 Log | 1.97 ± 0.088 Log | 83.7 ± 1.2% | 82.9 ± 2.06% | 2.01 ± 0.239 Log | 2.11 ± 0.198 Log | 99% | 1.93–2.41 Log | absorption and tissue distribution (in words) [4]: could be absorbed and distributed into tissues; antidepressant and cytoprotective effects (in words) [5]: antidepressant and cytoprotective effects; proliferation of hippocampal neural progenitor cells (in words) [6]: could enhance the proliferation |
| C[C@@H]1O[C@@H](OC[C@H]2O[C@@H](Oc3c(-c4ccc(O)cc4)oc4cc(O)cc(O)c4c3=O)[C@H](O[C@@H]3OCC(O)(CO)[C@H]3O)[C@@H](O)[C@@H]2O)[C@H](O)[C@H](O)[C@H]1O (stereo partly drawn) [Compound 6, kaempferol 3-O-β-D-apiofuranosyl-(1→2)-[α-L-rhamnopyranosyl-(1→6)]-β-D-glucopyranoside] | 456 ± 26 µM | – | – | – | 97 ± 2.99% | 95.7 ± 1.63% | 93.7 ± 4.87% | 89.5 ± 0.83% | – | – | 1.93 ± 0.124 Log | 1.93 ± 0.124 Log | 1.93 ± 0.124 Log | 1.93 ± 0.124 Log | 88.6 ± 0.43% | 86.4 ± 2.06% | 1.93 ± 0.124 Log | 1.97 ± 0.042 Log | 99% | 1.93–2.41 Log | – |
| C[C@@H]1O[C@@H](OC[C@H]2O[C@@H](Oc3c(-c4ccc(O)cc4)oc4cc(O)cc(O)c4c3=O)[C@H](O[C@@H]3OCC(O)(CO)[C@H]3O)[C@@H](O)[C@H]2O)[C@H](O)[C@H](O)[C@H]1O (stereo partly drawn) [Compound 7, kaempferol 3-O-β-D-apiofuranosyl-(1→2)-[α-L-rhamnopyranosyl-(1→6)]-β-D-galactopyranoside] | 432 ± 18.9 µM | – | – | – | – | – | – | – | – | – | – | – | – | – | – | – | – | – | – | – | – |
